In US9393271B2, “GHRH agonists for islet cell transplantation and function and the treatment of diabetes” (UNIVERSITY OF MIAMI, priority 2012, dated 2016):
Non-standard residues stand in square brackets, D forms with d. Residues, ends and D or L forms follow the SMILES beside them. *: point of attachment. Phe(F5) = N[C@@H](Cc1c(F)c(F)c(F)c(F)c1F)C(=O)O; Desaminotyrosyl = O=C(CCc1ccc(O)cc1)*; NMeY = CN[C@@H](Cc1ccc(O)cc1)C(=O)O; Agmatine = N=C(N)NCCCCN*; NMeA = CN[C@@H](C)C(=O)O; Nle = CCCC[C@H](N)C(=O)O; Orn = NCCC[C@H](N)C(=O)O; Abu = CC[C@H](N)C(=O)O; Aoc = NCCCCCCCC(=O)O; Ava = NCCCCC(=O)O

Target: T1, GHRH receptor (human pituitary membrane homogenates) (Homo sapiens, UniProt Q02643)
T1 sequence (Q02643 23-423): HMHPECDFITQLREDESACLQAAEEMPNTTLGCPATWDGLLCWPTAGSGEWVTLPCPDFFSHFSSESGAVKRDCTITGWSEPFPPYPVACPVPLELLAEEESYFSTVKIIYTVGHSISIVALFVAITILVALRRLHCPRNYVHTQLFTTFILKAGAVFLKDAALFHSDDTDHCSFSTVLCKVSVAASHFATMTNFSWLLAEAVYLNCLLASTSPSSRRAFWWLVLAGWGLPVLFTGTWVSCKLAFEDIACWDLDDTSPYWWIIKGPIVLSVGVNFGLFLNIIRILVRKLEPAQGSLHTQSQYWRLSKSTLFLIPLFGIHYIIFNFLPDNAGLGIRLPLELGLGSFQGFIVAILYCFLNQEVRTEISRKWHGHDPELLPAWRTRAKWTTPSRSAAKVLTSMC
Assay: GHRH receptor binding, ligand competition with 125I-labeled JV-1-42 (Table 7)
Parameters: Normal human pituitaries were purchased from the National Hormone and Peptide Program; tissue National Hormone and Peptide Program (A. F. Parlow, Harbor-UCLA Medical Center, Torrance, Calif.); host or cells: normal human pituitary, membrane fraction / homogenate
Settings: JI-38 = 1

| Compound | Relative affinitiy (Binding potency) vs JI-38 |
| --- | --- |
| CCCC[C@H](NC(=O)[C@@H](NC(=O)[C@H](CC(=O)O)NC(=O)[C@H](CCC(N)=O)NC(=O)[C@H](CC(C)C)NC(=O)[C@H](CC(C)C)NC(=O)[C@H](CCCN)NC(=O)[C@H](CCCNC(=N)N)NC(=O)[C@H](C)NC(=O)[C@H](CO)NC(=O)[C@H](CC(C)C)NC(=O)[C@H](CCC(N)=O)NC(=O)[C@H](CC)NC(=O)[C@H](CC(C)C)NC(=O)[C@@H](NC(=O)[C@H](CCCN)NC(=O)[C@H](CCCNC(=N)N)NC(=O)[C@H](Cc1ccc(O)cc1)NC(=O)[C@H](CO)NC(=O)[C@H](CCC(N)=O)NC(=O)[C@@H](NC(=O)[C@H](Cc1ccccc1)NC(=O)[C@@H](NC(=O)[C@H](C)NC(=O)[C@H](CC(=O)O)NC(=O)[C@@H](C)NC(=O)[C@H](Cc1ccc(O)cc1)N(C)C(C)=O)[C@@H](C)CC)[C@@H](C)O)C(C)C)[C@@H](C)CC)C(=O)N[C@@H](CC(=O)O)C(=O)NCCCCNC(=N)N [Peptide P-20351, [Ac—N—Me-Tyr^1, D-Ala^2, Gln^8, Orn^12, Abu^15, Orn^21, Nle^27, Asp^28, Agm^29]hGHRH(1-29)] (Ac-[NMeY][dA]DAIFTQSYR[Orn]VL[Abu]QLSAR[Orn]LLQDI[Nle]D-Agmatine) | 1.26 |
| CCCC[C@H](NC(=O)[C@@H](NC(=O)[C@H](CC(=O)O)NC(=O)[C@H](CCC(N)=O)NC(=O)[C@H](CC(C)C)NC(=O)[C@H](CC(C)C)NC(=O)[C@H](CCCN)NC(=O)[C@H](CCCNC(=N)N)NC(=O)[C@H](C)NC(=O)[C@H](CO)NC(=O)[C@H](CC(C)C)NC(=O)[C@H](CCC(N)=O)NC(=O)[C@H](CC)NC(=O)[C@H](CC(C)C)NC(=O)[C@@H](NC(=O)[C@H](CCCN)NC(=O)[C@H](CCCNC(=N)N)NC(=O)[C@H](Cc1ccc(O)cc1)NC(=O)[C@H](CO)NC(=O)[C@H](C)N(C)C(=O)[C@@H](NC(=O)[C@H](Cc1ccccc1)NC(=O)[C@@H](NC(=O)[C@H](C)NC(=O)[C@H](CC(=O)O)NC(=O)[C@@H](C)NC(=O)CCc1ccc(O)cc1)[C@@H](C)CC)[C@@H](C)O)C(C)C)[C@@H](C)CC)C(=O)N[C@@H](CC(=O)O)C(=O)NCCCCNC(=N)N [Peptide P-20357, [Dat^1, D-Ala^2, N—Me-Ala^8, Orn^12, Abu^15, Orn^21, Nle^27, Asp^28, Agm^29]hGHRH(1-29)] (Desaminotyrosyl-[dA]DAIFT[NMeA]SYR[Orn]VL[Abu]QLSAR[Orn]LLQDI[Nle]D-Agmatine) | 5.06 |
| CCCC[C@H](NC(=O)[C@@H](NC(=O)[C@H](CC(=O)O)NC(=O)[C@H](CCC(N)=O)NC(=O)[C@H](CC(C)C)NC(=O)[C@H](CC(C)C)NC(=O)[C@H](CCCN)NC(=O)[C@H](CCCNC(=N)N)NC(=O)[C@H](C)NC(=O)[C@H](CO)NC(=O)[C@H](CC(C)C)NC(=O)[C@H](CCC(N)=O)NC(=O)[C@H](CC)NC(=O)[C@H](CC(C)C)NC(=O)[C@@H](NC(=O)[C@H](CCCN)NC(=O)[C@H](CCCNC(=N)N)NC(=O)[C@H](Cc1ccc(O)cc1)NC(=O)[C@H](CO)NC(=O)[C@H](CC(N)=O)NC(=O)[C@@H](NC(=O)[C@H](Cc1c(F)c(F)c(F)c(F)c1F)NC(=O)[C@@H](NC(=O)[C@H](C)NC(=O)[C@H](CC(=O)O)NC(=O)[C@@H](C)NC(=O)[C@H](Cc1ccc(O)cc1)NC)[C@@H](C)CC)[C@@H](C)O)C(C)C)[C@@H](C)CC)C(=O)N[C@@H](CC(=O)O)C(=O)NCCCCNC(=N)N [Peptide P-20359, [N—Me-Tyr^1, D-Ala^2, Fpa5^6, Orn^12, Abu^15, Orn^21, Nle^27, Asp^28, Agm^29]hGHRH(1-29)] (H-[NMeY][dA]DAI[Phe(F5)]TNSYR[Orn]VL[Abu]QLSAR[Orn]LLQDI[Nle]D-Agmatine) | 1.43 |
| CCCC[C@H](NC(=O)[C@@H](NC(=O)[C@H](CC(=O)O)NC(=O)[C@H](CCC(N)=O)NC(=O)[C@H](CC(C)C)NC(=O)[C@H](CC(C)C)NC(=O)[C@H](CCCN)NC(=O)[C@H](CCCNC(=N)N)NC(=O)[C@H](C)NC(=O)[C@H](CO)NC(=O)[C@H](CC(C)C)NC(=O)[C@H](CCC(N)=O)NC(=O)[C@H](CC)NC(=O)[C@H](CC(C)C)NC(=O)[C@@H](NC(=O)[C@H](CCCN)NC(=O)[C@H](CCCNC(=N)N)NC(=O)[C@H](Cc1ccc(O)cc1)NC(=O)[C@H](CO)NC(=O)[C@H](CCC(N)=O)NC(=O)[C@@H](NC(=O)[C@H](Cc1ccccc1)NC(=O)[C@@H](NC(=O)[C@H](C)NC(=O)[C@H](CC(=O)O)NC(=O)[C@@H](C)NC(=O)[C@H](Cc1ccc(O)cc1)NC)[C@@H](C)CC)[C@@H](C)O)C(C)C)[C@@H](C)CC)C(=O)N[C@@H](CC(=O)O)C(=O)NCCCCNC(=N)N [Peptide P-20361, [N—Me-Tyr^1, D-Ala^2, Gln^8, Orn^12, Abu^15, Orn^21, Nle^27, Asp^28, Agm^29] hGHRH(1-29)] (H-[NMeY][dA]DAIFTQSYR[Orn]VL[Abu]QLSAR[Orn]LLQDI[Nle]D-Agmatine) | 5.30 |
| CCCC[C@H](NC(=O)[C@@H](NC(=O)[C@H](CC(=O)O)NC(=O)[C@H](CCC(N)=O)NC(=O)[C@H](CC(C)C)NC(=O)[C@H](CC(C)C)NC(=O)[C@H](CCCN)NC(=O)[C@H](CCCNC(=N)N)NC(=O)[C@H](C)NC(=O)[C@H](CO)NC(=O)[C@H](CC(C)C)NC(=O)[C@H](CCC(N)=O)NC(=O)[C@H](CC)NC(=O)[C@H](CC(C)C)NC(=O)[C@@H](NC(=O)[C@H](CCCN)NC(=O)[C@H](CCCNC(=N)N)NC(=O)[C@H](Cc1ccc(O)cc1)NC(=O)[C@H](CO)NC(=O)[C@H](CC(N)=O)NC(=O)[C@@H](NC(=O)[C@H](Cc1ccccc1)NC(=O)[C@@H](NC(=O)[C@H](C)NC(=O)[C@H](CC(=O)O)NC(=O)[C@@H](C)NC(=O)CCc1ccc(O)cc1)[C@@H](C)CC)[C@@H](C)O)C(C)C)[C@@H](C)CC)C(=O)N[C@@H](CC(=O)O)C(=O)N[C@@H](CCCNC(=N)N)C(=O)NCCCCCCCC(N)=O [Peptide P-21300, [Dat^1, D-Ala^2, Orn^12, Abu^15, Orn^21, Nle^27, Asp^28, Amc^30]hGHRH(1-30)NH2] (Desaminotyrosyl-[dA]DAIFTNSYR[Orn]VL[Abu]QLSAR[Orn]LLQDI[Nle]DR[Aoc]-NH2) | 1.20 |
| CCCC[C@H](NC(=O)[C@@H](NC(=O)[C@H](CC(=O)O)NC(=O)[C@H](CCC(N)=O)NC(=O)[C@H](CC(C)C)NC(=O)[C@H](CC(C)C)NC(=O)[C@H](CCCN)NC(=O)[C@H](CCCNC(=N)N)NC(=O)[C@H](C)NC(=O)[C@H](CO)NC(=O)[C@H](CC(C)C)NC(=O)[C@H](CCC(N)=O)NC(=O)[C@H](CC)NC(=O)[C@H](CC(C)C)NC(=O)[C@@H](NC(=O)[C@H](CCCN)NC(=O)[C@H](CCCNC(=N)N)NC(=O)[C@H](Cc1ccc(O)cc1)NC(=O)[C@H](CO)NC(=O)[C@H](CC(N)=O)NC(=O)[C@@H](NC(=O)[C@H](Cc1ccccc1)NC(=O)[C@@H](NC(=O)[C@H](C)NC(=O)[C@H](CC(=O)O)NC(=O)[C@H](C)NC(=O)[C@H](Cc1ccc(O)cc1)NC)[C@@H](C)CC)[C@@H](C)O)C(C)C)[C@@H](C)CC)C(=O)N[C@@H](CC(=O)O)C(=O)N[C@@H](CCCNC(=N)N)C(=O)NCCCCCCCC(N)=O [Peptide P-21301, [N—Me-Tyr^1, Orn^12, Abu^15, Orn^21, Nle^27, Asp^28, Amc^30]hGHRH(1-30)NH2] (H-[NMeY]ADAIFTNSYR[Orn]VL[Abu]QLSAR[Orn]LLQDI[Nle]DR[Aoc]-NH2) | 1.45 |
| CCCC[C@H](NC(=O)[C@@H](NC(=O)[C@H](CC(=O)O)NC(=O)[C@H](CCC(N)=O)NC(=O)[C@H](CC(C)C)NC(=O)[C@H](CC(C)C)NC(=O)[C@H](CCCN)NC(=O)[C@H](CCCNC(=N)N)NC(=O)[C@H](C)NC(=O)[C@H](CO)NC(=O)[C@H](CC(C)C)NC(=O)[C@H](CCC(N)=O)NC(=O)[C@H](CC)NC(=O)[C@H](CC(C)C)NC(=O)[C@@H](NC(=O)[C@H](CCCN)NC(=O)[C@H](CCCNC(=N)N)NC(=O)[C@H](Cc1ccc(O)cc1)NC(=O)[C@H](CO)NC(=O)[C@H](CC(N)=O)NC(=O)[C@@H](NC(=O)[C@H](Cc1ccccc1)NC(=O)[C@@H](NC(=O)[C@H](C)NC(=O)[C@H](CC(=O)O)NC(=O)[C@@H](C)NC(=O)[C@H](Cc1ccc(O)cc1)NC)[C@@H](C)CC)[C@@H](C)O)C(C)C)[C@@H](C)CC)C(=O)N[C@@H](CC(=O)O)C(=O)N[C@@H](CCCNC(=N)N)C(=O)NCCCCCCCC(N)=O [Peptide P-21303, [N—Me-Tyr^1, D-Ala^2, Orn^12, Abu^15, Orn^21, Nle^27, Asp^28, Amc^30]hGHRH(1-30)NH2] (H-[NMeY][dA]DAIFTNSYR[Orn]VL[Abu]QLSAR[Orn]LLQDI[Nle]DR[Aoc]-NH2) | 2.32 |
| CCCC[C@H](NC(=O)[C@@H](NC(=O)[C@H](CC(=O)O)NC(=O)[C@H](CCC(N)=O)NC(=O)[C@H](CC(C)C)NC(=O)[C@H](CC(C)C)NC(=O)[C@H](CCCN)NC(=O)[C@H](CCCNC(=N)N)NC(=O)[C@H](C)NC(=O)[C@H](CO)NC(=O)[C@H](CC(C)C)NC(=O)[C@H](CCC(N)=O)NC(=O)[C@H](CC)NC(=O)[C@H](CC(C)C)NC(=O)[C@@H](NC(=O)[C@H](CCCN)NC(=O)[C@H](CCCNC(=N)N)NC(=O)[C@H](Cc1ccc(O)cc1)NC(=O)[C@H](CO)NC(=O)[C@H](CCC(N)=O)NC(=O)[C@@H](NC(=O)[C@H](Cc1ccccc1)NC(=O)[C@@H](NC(=O)[C@H](C)NC(=O)[C@H](CC(=O)O)NC(=O)[C@H](C)NC(=O)CCc1ccc(O)cc1)[C@@H](C)CC)[C@@H](C)O)C(C)C)[C@@H](C)CC)C(=O)N[C@@H](CC(=O)O)C(=O)N[C@@H](CCCNC(=N)N)C(=O)NCCCCC(N)=O [Peptide P-22327, [Dat^1, Gln^8, Orn^12, Abu^15, Orn^21, Nle^27, Asp^28, Apa^30]hGHRH(1-30)NH2] (Desaminotyrosyl-ADAIFTQSYR[Orn]VL[Abu]QLSAR[Orn]LLQDI[Nle]DR[Ava]-NH2) | 2.18 |
